Experimental data from patent US10800778B2 (Entasis Therapeutics Limited, priority 2016, dated 2020).
pIC50: −log10 of the molar value. Where a name gives a salt, the structure may show the parent alone. Blank lines part the entries; values can stand above or below the molecule they belong to.

Legend:
[1] = Rat PK, intravenous and oral; type: in vivo, Sprague-Dawley rats; settings: Sprague-Dawley, plasma, 10 mg/kg; rat, PO; analyte = compound administered (sulfate-derived comparator)
Procedure: Intravenous rat pharmacokinetics of exemplar compounds were determined in jugular vein cannulated Sprague-Dawley rats (n=3) (Harlan Laboratories, Indianapolis, Ind.) at a dose of 10 mg/kg. Compounds were dissolved and administered intravenously in 0.9% saline, pH 6.5 at a dose volume of 2 mL/kg. […] Oral pharmacokinetic studies were conducted with exemplar compounds at 10 mg/kg equivalents of carboxylic acids. Doses were dissolved and administered orally in 25:75 PEG400: water for injection, pH 4.5 at a dose volume of 10 mL/kg. […] Plasma samples were stored at −80° C. prior to bioanalysis.
Plasma samples were thawed on ice prior to processing. Samples (30 μL) were diluted and proteins precipitated with 180 μL of acetonitrile containing 0.1% formic acid and 250 ng/mL of carbutamide (N1-(butylcarbanoyl)-sulfanilamide, Sigma-Aldrich Catalog # S385433) as an internal standard. Samples were vortexed for 30 seconds, centrifuged at 3400 g for 10 minutes and the supernatant transferred to injection vials.
LC/MS/MS analysis was completed on an AB Sciex QTrap 6500 mass spectrometer in positive ionization mode, coupled to a Schimadzu Nexera LC system. A Waters Atlantis T3 (3 μm, 3.0×50 mm) column was used for chromatographic separation. Injection volume was […] The mobile phase consisted 0.1% formic acid in water (A) and 0.1% formic acid in acetonitrile (B), with a gradient of 2-98% B:A over two minutes.
Plasma concentration vs. time profiles following intravenous (IV) administration and oral (PO) administration of exemplar compounds were analyzed by non-compartment analysis using WinNonLin 6.4.

[2] = target: OXA-48 (Class D beta-lactamase) (Klebsiella pneumoniae, UniProt Q6XEC0); assay: Inhibition of beta-lactamase enzymes (nitrocefin hydrolysis), OXA-48; type: biochemical; settings: read-out: Class D OXA-48 60 min IC50, nitrocefin 100 μM
Sequence of OXA-48 (Class D beta-lactamase) (Q6XEC0 whole entry, looked up, species assumed): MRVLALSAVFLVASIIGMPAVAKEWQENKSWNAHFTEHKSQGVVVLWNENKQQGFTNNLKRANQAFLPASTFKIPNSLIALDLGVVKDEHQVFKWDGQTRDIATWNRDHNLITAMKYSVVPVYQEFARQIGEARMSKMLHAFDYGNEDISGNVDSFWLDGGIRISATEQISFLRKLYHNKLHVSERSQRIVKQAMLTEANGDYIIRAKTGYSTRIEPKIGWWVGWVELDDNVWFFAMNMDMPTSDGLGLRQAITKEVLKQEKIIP
Procedure: (§1) A buffer consisting of 0.1 M sodium phosphate (pH 7.0), 10 mM NaHCO3, and 0.005% Triton X-100 was used for all enzymes. The chromogenic substrate nitrocefin (SynGene, Bangalore, India) was used at 100 μM. Enzyme activity was monitored by the 490 nm absorbance increase upon nitrocefin hydrolysis. Assays were performed in clear polystyrene 384-well plates (Greiner Bio-One, Monroe, N.C.). Absorbance was measured for 1 hour at 30-s intervals using a Spectramax absorbance plate reader (Molecular Devices, Sunnyvale, Calif.). Measurement of beta-lactamase inhibition by INHIBITOR employed serial 3-fold dilutions of the inhibitor in assay buffer, ranging from 100 μM to 62.7 pM. A background absorbance progress curve for a control lacking enzyme and inhibitor was subtracted from each progress curve.
(§2) The complete set of progress curves for one enzyme with all inhibitor concentrations was subjected to numerical integration with the program Kintek Global Kinetic Explorer (Kintek Corp, Snowshoe Pa.) to obtain a best-fit to the mechanism shown in Scheme 10.
(§3) where E, S, ES, P, I, and EI are the concentrations of the enzyme, nitrocefin, the enzyme-nitrocefin complex, the nitrocefin hydrolysis product, INHIBITOR, and the enzyme-INHIBITOR complex respectively. […] The values of k+2, k+3, and k−3 were fit. Concentration series offsets of the absorbance measurements were used to correct for slight absorbance baseline differences between wells. The parameter k+3 is equivalent to the second order rate constant kinact/Ki. In some cases, the inhibition was in rapid equilibrium on the experimental time scale, so that only the ratio k−3/k+3=Ki could be determined. Although k−3 represents reversal of inhibitor binding in Scheme 10, hydrolysis of the enzyme-inhibitor complex could not be excluded based on kinetic measurements.
(§4) Best-fit absorbance values from the above procedure at each time point for each compound concentration were exported to Excel.
(§5) where A is the best-fit absorbance without inhibitor and Ainhib is the best-fit absorbance in the presence of the inhibitor.
(§6) where [I] is the inhibitor concentration and n is the Hill coefficient. The Excel add-in XLfit (ID Business Solutions) was used for nonlinear regression.

[3] = target: TEM-1 (Class A beta-lactamase) (Escherichia coli, UniProt P62593); assay: Inhibition of beta-lactamase enzymes (nitrocefin hydrolysis), TEM-1; type: biochemical; settings: read-out: Class A TEM-1 60 min IC50, nitrocefin 100 μM
Sequence of TEM-1 (Class A beta-lactamase) (P62593 whole entry, looked up, species assumed): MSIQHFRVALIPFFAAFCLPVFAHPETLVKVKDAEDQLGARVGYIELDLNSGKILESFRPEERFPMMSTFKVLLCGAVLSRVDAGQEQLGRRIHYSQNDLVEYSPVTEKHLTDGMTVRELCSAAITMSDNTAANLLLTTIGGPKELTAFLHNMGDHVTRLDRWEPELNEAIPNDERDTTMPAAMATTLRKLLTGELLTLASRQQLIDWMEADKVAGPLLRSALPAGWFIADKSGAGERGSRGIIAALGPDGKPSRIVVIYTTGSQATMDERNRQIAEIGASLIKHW
Procedure: as §1, §2, §3, §4, §5, §6

[4] = tested on: E. coli WT (ATCC 25922); assay: MIC, CLSI broth microdilution, beta-lactam with or without BLI; type: cell-based; settings: for MIC of beta-lactam alone: no BLI; for MIC: Escherichia coli, ATCC25922, no BLI, read-out: MIC of beta-lactam alone
Procedure: (§7) The minimal inhibitory concentration (MIC) values against each organism and drug combination were determined using the Clinical and Laboratory Standards Institute guidelines (CLSI) broth microdilution methodology (CLSI M07-A10). The recommended quality control (QC) bacterial strains E. coli ATCC 25922, E. coli ATCC 35218 and Klebsiella pneumoniae ATCC 700603 were incorporated into each test according to the CLSI guidelines to assure that there was no variation between test dates (CLSI M100-S25). The MICs of these QC strains were within QC range on all test occasions. Drug containing plates were made using the master plate method. A cefpodoxime solution was prepared to 20× concentration and 2-fold serial dilutions were made in cation adjusted Mueller-Hinton Broth. Equal volumes of 20× examplar compounds at a fixed concentration were added to the master plate. 10 uL was stamped into daughter plates using a Tecan EVO robot. Organism suspensions were adjusted to a 0.5 McFarland standard and further diluted to yield a final inoculum between 3×10^5 and 7×10^5 colony-forming units (CFU)/mL. Bacterial inocula were made in sterile, cation adjusted Mueller-Hinton Broth (Beckton Dickinson). An inoculum volume of 1.1× concentration of 90 uL was added to wells (using a Tecan EVO robot). All inoculated microdilution plates were incubated in ambient air at 35° C. for 18-24 hours.
(§8) Following the procedure from Example 103, MICs were determined for several beta-lactams in presence of a fixed concentration (4 μg/mL) of exemplar compounds (Table 3) against 3 Enterobacteriaceae strains.

[5] = tested on: Klebsiella pneumoniae SHV-18, OXA-2, OKP-6 (ATCC 700603); assay: as above; type: cell-based; settings: for MIC of cefpodoxime in presence of BLI: BLI at fixed 4 μg/mL; for MIC of cefpodoxime in presence of BLI / MIC of beta-lactam alone / MIC: K. pneumoniae SHV-18, OXA-2, OKP-6 (ATCC 700603); for MIC of beta-lactam alone / MIC: no BLI; for MIC: Klebsiella pneumoniae, ATCC700603, read-out: MIC of beta-lactam alone
Procedure: as §7, §8

[6] = tested on: C. freundii AmpC, TEM-1, CMY65; assay: as above; type: cell-based; settings: for MIC of beta-lactam alone / MIC: no BLI; for MIC: Citrobacter freundii, read-out: MIC of beta-lactam alone
Procedure: as §7, §8

[7] = tested on: E. coli ARC2687 (AmpC, CTX-M-14); assay: Mouse neutropenic thigh infection model, oral efficacy of cefpodoxime proxetil with Example 35; type: in vivo
Procedure: The oral in vivo efficacy of Example 35 was evaluated in combination with cefpodoxime proxetil in a mouse neutropenic thigh infection model versus a relevant clinical isolate. […] CD-1 mice (Charles River, Wilmington US) were housed in shoebox type cages with contact bedding and acclimated to the facility for a minimum of 2 days prior to use. The animal room was maintained at 70° F., with 50+/−10% relative humidity and a 12-hour light/dark cycle. The study was conducted using an IACUC-approved protocol in accordance with Title 9 of the Code of Federal Regulations. Animals were rendered neutropenic with two intraperitoneal doses of cyclophosphamide (150 mg/kg—4 days and 100 mg/kg—1 day prior to infection (Gerber et al. (1983) J Infect Dis 147(5); 910-917)). Animals were infected via an intramuscular challenge of ˜1×10^6 CFU administered within 100 μL of 0.9% saline. The inoculum was prepared from a 25 mL overnight culture of E. coli ARC 2687 in tryptic soy broth media. Following an OD600 determination, the inoculum was diluted in 0.9% saline to a concentration of […] prior to inoculation into the left and right thigh. Oral therapy with cefpodoxime proxetil alone and in combination with Example 35 was initiated 2 hours post bacterial challenge. Doses were suspended in 0.5% HPMC/0.1% Tween 80 and administered by oral gavage at a dose volume of 10 mL/kg. A terminal endpoint was obtained at 24 hr to determine bacterial counts in thigh tissue (CFU/gm). Animals were ethically euthanized, thighs were asceptically removed, weighed and homogenized in 1 mL of saline. Bacterial burden enumeration of tissue homogenate was performed by serial dilution on tryptic soy agar plates which were incubated overnight at 37° C. prior to colony (CFU) counting. The lower limit of detection was ˜2.6 log10 CFU/gm of tissue.

[8] = BLI at fixed 4 μg/ml, K. pneumoniae ATCC 700603

MIC of beta-lactam alone [4]: 0.5 µg/mL
MIC of beta-lactam alone [5]: 8 µg/mL
MIC of beta-lactam alone [6]: >64 µg/mL
Structure (SMILES): C=CC1=C(C(=O)O)N2C(=O)[C@@H](NC(=O)/C(=N\OCC(=O)O)c3csc(N)n3)[C@H]2SC1 [Cefixime, cefixime, reference compound]

MIC of beta-lactam alone [4]: 1 µg/mL
MIC of beta-lactam alone [5]: 32 µg/mL
MIC of beta-lactam alone [6]: 4 µg/mL
Structure (SMILES): CC1(C)[C@H](NC(=O)/C(=N\OCC(=O)O)c2csc(N)n2)C(=O)N1OS(=O)(=O)O [Tigemonam, tigemonam, reference compound]

MIC [4]: ≤ 0.06 µg/mL
MIC [5]: 0.125 µg/mL
MIC [6]: 0.125 µg/mL
Structure (SMILES): C[C@@H](O)[C@H]1C(=O)N2C(C(=O)O)=C(SC3CN(C4=NCCS4)C3)[C@H](C)[C@H]12 [Tebipenem, tebipenem, reference compound]

MIC of beta-lactam alone [4]: 2 µg/mL
MIC of beta-lactam alone [5]: 32 µg/mL
MIC of beta-lactam alone [6]: >64 µg/mL
Structure (SMILES): N[C@@H](C(=O)N[C@@H]1C(=O)N2C(C(=O)O)=C(Cl)CC[C@H]12)c1ccccc1 [Loracarbef, loracarbef, reference compound]

MIC of beta-lactam alone [4]: 4 µg/mL
MIC of beta-lactam alone [5]: 32 µg/mL
MIC of beta-lactam alone [6]: >64 µg/mL
Structure (SMILES): CO/N=C(\C(=O)N[C@@H]1C(=O)N2C(C(=O)O)=C(COC(N)=O)CS[C@H]12)c1ccco1 [Cefuroxime, cefuroxime, reference compound]

MIC [4]: 0.5 µg/mL
MIC [5]: 8 µg/mL
MIC [6]: 8 µg/mL
Structure (SMILES): C[C@@H](O)[C@H]1C(=O)N2C(C(=O)O)=C([C@H]3CCCO3)S[C@H]12 [Faropenem, faropenem, reference compound]

The next lines start with the molecule.

Structure (SMILES): CC1=C[C@@H]2CN(C(=O)N2OS(=O)(=O)O)[C@@H]1C(N)=O [ETX2514, reference compound]
AUC [1]: 0.44 µM·h

Structure (SMILES): CC1=C[C@@H](C(N)=O)N2C[C@@H]1N(OCC(=O)O)C2=O [Example 93, 2-(((2S,5R)-2-carbamoyl-4-methyl-7-oxo-1,6-diazabicyclo[3.2.1]oct-3-en-6-yl)oxy)acetic acid lithium salt]
pIC50 [2]: 7.28
pIC50 [3]: 6.82
MIC of cefixime in presence of BLI ([4]; BLI at fixed 4 μg/ml): ≤0.06 µg/mL
MIC of faropenem in presence of BLI ([4]; BLI at fixed 4 μg/ml): ≤0.06 µg/mL
MIC of tebipenem in presence of BLI ([4]; BLI at fixed 4 μg/ml): ≤0.06 µg/mL
MIC of cefpodoxime in presence of BLI ([5]; lithium salt): 0.125 µg/mL
MIC of cefixime in presence of BLI [5, 8]: 0.125 µg/mL
MIC of faropenem in presence of BLI [5, 8]: 1 µg/mL
MIC of tebipenem in presence of BLI [5, 8]: ≤0.06 µg/mL
MIC of cefixime in presence of BLI ([6]; BLI at fixed 4 μg/ml): ≤0.06 µg/mL
MIC of faropenem in presence of BLI ([6]; BLI at fixed 4 μg/ml): ≤0.06 µg/mL
MIC of tebipenem in presence of BLI ([6]; BLI at fixed 4 μg/ml): ≤0.06 µg/mL

Structure (SMILES): O=C(NC1CCNCC1)[C@@H]1CC[C@@H]2CN1C(=O)N2OS(=O)(=O)O [Relebactam, reference compound]
AUC [1]: 0.29 µM·h

Structure (SMILES): N#CC1CC[C@@H]2CN1C(=O)N2OS(=O)(=O)O (stereo partly shown) [WCK 4234, reference compound]
AUC [1]: 0.45 µM·h

Structure (SMILES): COCC1=C(C(=O)OC(C)OC(=O)OC(C)C)N2C(=O)[C@@H](NC(=O)/C(=N\OC)c3csc(N)n3)[C@H]2SC1 (stereo partly shown) [Cefpodoxime proxetil, cefpodoxime proxetil, reference compound]
log10CFU/gm thigh ([7]; cefpodoxime proxetil alone 50 mg/kg PO/q6h, mouse neutropenic thigh, E. coli ARC2687): 10.24 log10CFU/gm thigh
CFU Change from 26 hr ([7]; cefpodoxime proxetil alone 50 mg/kg PO/q6h, relative to 26 hr growth control): −0.62 log10 CFU/gm
CFU Change from 2 hr ([7]; cefpodoxime proxetil alone 50 mg/kg PO/q6h, relative to initiation of therapy): +3.97 log10 CFU/gm
growth of bacterial burden in thighs after 24 hours of therapy ([7]; cefpodoxime proxetil alone at 50 mg/kg q6h, oral, neutropenic CD-1 mice): greater than 3 log10 CFU/gm

Structure (SMILES): CC1=C[C@@H]2CN(C(=O)N2O[C@@H](F)C(=O)O)[C@@H]1C(=O)NCCNS(N)(=O)=O [Example 75, (2S)-2-fluoro-2-[[(2S,5R)-3-methyl-7-oxo-2-[2-(sulfamoylamino)ethyl-carbamoyl]-1,6-diazabicyclo[3.2.1]oct-3-en-6-yl]oxy]acetic acid lithium salt]
pIC50 [2]: 6.38
pIC50 [3]: 7.08
MIC of cefpodoxime in presence of BLI [5]: 0.125 µg/mL
